In patent US9694016B2 (Novartis AG, priority 2013, dated 2017):
Read-outs that look alike come from different tables or passages of the source.

Target: b-Raf (V600E) (Homo sapiens (Human), UniProt P15056, V600E)
Settings: read-out: b-Raf IC-50, AlphaScreen
[1] = 60 min pre-incubation, 3 hours reaction
[2] = 60 min pre-incubation, reaction 3 hours at room temperature

b-Raf (V600E), sequence (P15056 whole entry V600E): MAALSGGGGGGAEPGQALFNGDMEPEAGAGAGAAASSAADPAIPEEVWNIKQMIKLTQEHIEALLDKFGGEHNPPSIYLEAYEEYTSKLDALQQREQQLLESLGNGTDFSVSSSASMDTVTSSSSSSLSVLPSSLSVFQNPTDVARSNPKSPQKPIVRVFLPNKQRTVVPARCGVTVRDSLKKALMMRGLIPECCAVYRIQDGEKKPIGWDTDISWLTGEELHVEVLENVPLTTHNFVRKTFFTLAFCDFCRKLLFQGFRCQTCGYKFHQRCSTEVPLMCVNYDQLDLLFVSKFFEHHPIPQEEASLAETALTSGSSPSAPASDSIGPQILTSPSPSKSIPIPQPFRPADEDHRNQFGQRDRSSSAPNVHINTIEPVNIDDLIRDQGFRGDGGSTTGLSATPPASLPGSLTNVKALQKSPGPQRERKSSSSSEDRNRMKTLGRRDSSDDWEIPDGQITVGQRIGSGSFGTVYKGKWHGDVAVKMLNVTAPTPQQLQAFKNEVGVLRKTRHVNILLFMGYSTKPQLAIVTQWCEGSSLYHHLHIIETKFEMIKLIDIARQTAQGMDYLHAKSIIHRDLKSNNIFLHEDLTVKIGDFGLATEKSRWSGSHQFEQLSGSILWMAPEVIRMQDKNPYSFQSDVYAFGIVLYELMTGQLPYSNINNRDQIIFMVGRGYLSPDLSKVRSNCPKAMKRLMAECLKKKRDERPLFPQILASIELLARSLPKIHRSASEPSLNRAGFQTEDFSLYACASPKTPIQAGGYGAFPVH

Row | SMILES | IC50 [1] [nM] | IC50 [2] [nM] | also measured
1 | Cc1ccc(C(=O)Nc2cccc(C(F)(F)F)c2)cc1-c1cc(N2CCS(=O)(=O)CC2)nc(N2CCOCC2)n1 [Example 7, 3-(6-(1,1-dioxidothiomorpholino)-2-morpholinopyrimidin-4-yl)-4-methyl-N-(3-(trifluoromethyl)phenyl)benzamide] | – | – | IC50 (Table 2, 3 hours reaction): 2.5 nM
2 | Cc1ncc(NC(=O)c2ccnc(C(C)(C)F)c2)cc1-c1cnc(OC2CCOCC2)c(N2CCOCC2)c1 [Example 273, 2-(2-fluoropropan-2-yl)-N-(2-methyl-5′-morpholino-6′-((tetrahydro-2H-pyran-4-yl)oxy)-[3,3′-bipyridin]-5-yl)isonicotinamide] | – | – | IC50 (Table 2, 3 hours reaction): 2.7 nM
3 | Cc1ccc(NC(=O)c2ccnc(C(C)(C)O)c2)cc1-c1cc(N2CCOCC2)c2nccn2n1 [Example 841, 2-(2-hydroxypropan-2-yl)-N-(4-methyl-3-(8 morpholinoimidazo[1,2-b]pyridazin-6-yl)phenyl)isonicotinamide] | 1.7 | – | –
4 | Cc1ncc(NC(=O)c2ccnc(C(C)(C)O)c2)cc1-c1cnc(OC(C)C)c(N2CCOCC2)c1 [Example 955, 2-(2-hydroxypropan-2-yl)-N-(6′-isopropoxy-2-methyl-5′-morpholino-[3,3′-bipyridin]-5-yl)isonicotinamide] | – | 18.1 | –
5 | Cc1ncc(NC(=O)c2cncc(C(F)(F)F)c2)cc1-c1cnc(OCC(F)F)c(N2CCOCC2)c1 [Example 935, N-(6′-(2,2-difluoroethoxy)-2-methyl-5′-morpholino-[3,3′-bipyridin]-5-yl)-5-(trifluoromethyl)nicotinamide] | – | 2.04 | –
6 | Cc1ccc(C(=O)Nc2cccc(C(C)(C)C#N)c2)cc1-c1cc(N2CCOCC2)n(C)c(=O)c1 [Example 515, N-(3-(2-cyanopropan-2-yl)phenyl)-4-methyl-3-(1-methyl-6-morpholino-2-oxo-1,2-dihydropyridin-4-yl)benzamide] | 4.5 | – | –
7 | Cc1ccc(NC(=O)c2cnnc(C(C)(C)C#N)c2)cc1-c1cc(N2CCOCC2)nc(NCCO)n1 [Example 737, 6-(2-cyanopropan-2-yl)-N-(3-(2-((2-hydroxyethyl)amino)-6-morpholinopyrimidin-4-yl)-4-methylphenyl)pyridazine-4-carboxamide] | 17.9 | – | –
8 | Cc1ccc(NC(=O)c2ccnc(C(F)(F)F)c2)cc1-c1c(F)c(NCCO)nc(N2CCOCC2)c1F [Example 1014, N-(3-(3,5-difluoro-2-((2-hydroxyethyl)amino)-6-morpholinopyridin-4-yl)-4-methylphenyl)-2-(trifluoromethyl)isonicotinamide] | – | 12.8 | –
9 | Cc1ccc(NC(=O)c2cc(C(C)(C)O)ccn2)cc1-c1cc(N2CCOCC2)c(=O)n(C)c1 [Example 906, 4-(2-hydroxypropan-2-yl)-N-(4-methyl-3-(1-methyl-5-morpholino-6-oxo-1,6-dihydropyridin-3-yl)phenyl)picolinamide] | – | 9.45 | –
10 | Cc1ccc(NC(=O)c2ccnc(C(F)F)c2)cc1-c1cc(N2CCOCC2)nc(N2CC(C)(O)C2)c1 [Example 1072, 2-(difluoromethyl)-N-(3-(2-(3-hydroxy-3-methylazetidin-1-yl)-6-morpholinopyridin-4-yl)-4-methylphenyl)isonicotinamide] | – | 1.74 | –
11 | COc1ncc(-c2cc(NC(=O)c3cnnc(C(F)(F)F)c3)cnc2Cl)cc1N1CCOCC1 [Example 263, N-(2-chloro-6′-methoxy-5′-morpholino-[3,3′-bipyridin]-5-yl)-6-(trifluoromethyl)pyridazine-4-carboxamide] | – | – | IC50 (Table 2, 3 hours reaction): 9 nM
12 | Cc1ccc(NC(=O)c2cncc(C(F)(F)F)c2)cc1-c1cnc(OCCO)c(N2CCOCC2)c1 [Example 1001, N-(3-(6-(2-hydroxyethoxy)-5-morpholinopyridin-3-yl)-4-methylphenyl)-5-(trifluoromethyl)nicotinamide] | – | 1.36 | –
13 | Cc1ccc(NC(=O)c2ccnc(C(C)(C)C#N)c2)cc1-c1cc(N2CCOCC2)nc(N2CC(O)C2)n1 [Example 769] | 10.2 | – | –
14 | CCNc1nc(-c2cc(NC(=O)c3ccnc(C(C)(C)O)c3)ccc2C)cc(N2CCOC[C@H]2C)n1 [Example 712, (R)—N-(3-(2-(ethylamino)-6-(3-methylmorpholino)pyrimidin-4-yl)-4-methylphenyl)-2-(2-hydroxypropan-2-yl)isonicotinamide] | 12.1 | – | –
15 | CCNc1nc(-c2cc(NC(=O)c3cnnc(C4CC4)c3)cnc2C)cc(N2CCOCC2)n1 [Example 727, 6-cyclopropyl-N-(5-(2-(ethylamino)-6-morpholinopyrimidin-4-yl)-6-methylpyridin-3-yl)pyridazine-4-carboxamide] | 8.5 | – | –
16 | Cc1ccc(C(=O)Nc2cccc(OC(F)(F)F)c2)cc1-c1cc(N2CCOCC2)c(=O)n(C)c1 [Example 441, 4-methyl-3-(1-methyl-5-morpholino-6-oxo-1,6-dihydropyridin-3-yl)-N-(3-(trifluoromethoxy)phenyl)benzamide] | 33.2 | – | –
17 | Cc1ccc(NC(=O)c2cc(C(C)(C)C#N)ccn2)cc1-c1cc(N2CCOCC2)c(=O)n(C)c1 [Example 903, 4-(2-cyanopropan-2-yl)-N-(4-methyl-3-(1-methyl-5-morpholino-6-oxo-1,6-dihydropyridin-3-yl)phenyl)picolinamide] | – | 3.64 | –
18 | CCOc1nnc(-c2cc(NC(=O)c3ccnc(C(C)(C)C#N)c3)cnc2C)cc1N1CCOC[C@H]1C [Example 623, (R)-2-(2-cyanopropan-2-yl)-N-(5-(6-ethoxy-5-(3-methylmorpholino)pyridazin-3-yl)-6-methylpyridin-3-yl)isonicotinamide] | 56.7 | – | –
19 | CCOc1ncc(-c2cc(NC(=O)c3cccc(S(C)(=N)=O)c3)ccc2C)cc1N1CCOCC1 (stereo not shown) [Example 975, N-(3-(6-ethoxy-5-morpholinopyridin-3-yl)-4-methylphenyl)-3-(S-methylsulfonimidoyl)benzamide] | – | 1.81 | –
20 | Cc1ccc(NC(=O)c2ccnc(C(F)(F)F)c2)cc1-c1cc(N2CCNCC2)nc(N2CCOCC2)c1 [Example 1128, N-(4-methyl-3-(2-morpholino-6-(piperazin-1-yl)pyridin-4-yl)phenyl)-2-(trifluoromethyl)isonicotinamide] | – | 2.16 | –
21 | C=C(C)c1ccc(F)c(NC(=O)c2ccc(C)c(-c3cnc(OCC)c(N4CCOCC4)c3)c2)c1 [Example 256, 3-(6-ethoxy-5-morpholinopyridin-3-yl)-N-(2-fluoro-5-(prop-1-en-2-yl)phenyl)-4-methylbenzamide] | – | – | IC50 (Table 2, 3 hours reaction): 1.8 nM
22 | Cc1ccc(NC(=O)c2cnnc(C3CC3)c2)cc1-c1cc(N2CCOCC2)c(=O)n(C)n1 [Example 644, 6-cyclopropyl-N-(4-methyl-3-(1-methyl-5-morpholino-6-oxo-1,6-dihydropyridazin-3-yl)-phenyl)pyridazine-4-carboxamide] | 2.9 | – | –
23 | CCOc1ncc(-c2cc(NC(=O)c3cccc(C(F)(F)F)c3)ccc2C)cc1N1CCOCC1 [Example 235] | – | – | IC50 (Table 2, 3 hours reaction): 1 nM
24 | Cc1ccc(NC(=O)c2ccnc(S(C)(=O)=O)c2)cc1-c1cnc(OC[C@H](C)O)c(N2CCOCC2)c1 [Example 989, (S)—N-(3-(6-(2-hydroxypropoxy)-5-morpholinopyridin-3-yl)-4-methylphenyl)-2-(methylsulfonyl)isonicotinamide] | – | 1.96 | –
25 | Cc1ccc(NC(=O)c2ccnc(C(C)(C)C)c2)cc1-c1cc(N2CCOCC2)n(C)c(=O)c1 [Example 472, 2-(tert-butyl)-N-(4-methyl-3-(1-methyl-6-morpholino-2-oxo-1,2-dihydropyridin-4-yl)phenyl)isonicotinamide] | 2.1 | – | –
